From ChEMBL document CHEMBL1135538, “Synthesis of N-glyoxyl prolyl and pipecolyl amides and thioesters and evaluation of their in vitro and in vivo nerve regenerative effects” (J Med Chem, 2002)

Legend:
Mus musculus [1] = assay: Percent recovery of tyrosine hydroxylase immunostaining in mice following 10 mg/kg p.o. administration after lesioning with MPTP.; type: functional, organism-based; set-up: dose 10 mg/kg; conditions: at 10 mg/kg
[2] = biological target: Peptidyl-prolyl cis-trans isomerase FKBP1A (Homo sapiens, UniProt P62942); assay: Inhibitory activity against FK506 binding protein 12
Mus musculus [3] = assay: Percent recovery of tyrosine hydroxylase immunostaining after oral administration at dose 10 mg/kg after lesioning with MPTP (post-MPTP); type: functional, organism-based; set-up: dose 10 mg/kg
Mus musculus [4] = assay: Percent recovery of tyrosine hydroxylase immunostaining after oral administration at dose 10 mg/kg concurrently with MPTP; type: functional, organism-based; set-up: dose 10 mg/kg
Mus musculus [5] = assay: Percent recovery of vtyrosine hydroxylase immunostaining after oral administration at dose 10 mg/kg after lesioning with MPTP (post-MPTP); type: functional, organism-based; set-up: dose 10 mg/kg
Mus musculus [6] = assay: Percent recovery of tyrosine hydroxylase immunostaining after peroral administration at dose 10 mg/kg after lesioning with MPTP (post-MPTP); type: functional, organism-based; set-up: dose 10 mg/kg
Gallus gallus = species: Gallus gallus; assay: In vitro promotion of fiber extension (neurite outgrowth) from cultured chick sensory neuron; type: functional; conditions: read-out: ED50 (the source's name)

Sequence of Peptidyl-prolyl cis-trans isomerase FKBP1A (P62942 whole entry): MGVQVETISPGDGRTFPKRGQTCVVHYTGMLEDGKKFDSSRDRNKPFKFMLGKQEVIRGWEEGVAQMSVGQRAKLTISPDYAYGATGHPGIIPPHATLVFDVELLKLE

| Structure (SMILES) | Recovery (Mus musculus [1]) | Recovery (Mus musculus [4]) | further results |
| --- | --- | --- | --- |
| CCC(C)(C)C(=O)C(=O)N1CCCC[C@H]1C(=O)NCCCCc1ccccc1 | 54.1% |  |  |
| CCC(C)(C)C(=O)C(=O)N1CCC[C@H]1C(=O)NCCCc1ccccc1 |  |  | Ki [2]: 1100 nM; Recovery (Mus musculus [3]): 39% |
| CCC(C)(C)C(=O)C(=O)N1CCC[C@H]1C(=O)NCCCc1ccc(O)cc1 | 1.8% |  |  |
| CC(C)(C)C(=O)C(=O)N1CCCC[C@H]1C(=O)NCCCCc1ccccc1 | 44.9% |  |  |
| CCC(C)(C)C(=O)C(=O)N1CCCC[C@H]1C(=O)SCCC(c1ccccc1)c1ccccc1 | 72% | 81% |  |
| CCC(C)(C)C(=O)C(=O)N1CCCC[C@H]1C(=O)SCCCc1ccccc1 |  |  | Recovery (Mus musculus [5]): 30% |
| CCC(C)(C)C(=O)C(=O)N1CCC[C@H]1C(=O)SCCCCc1ccccc1 |  | 48% |  |
| CCC(C)(C)C(=O)C(=O)N1CCCC[C@H]1C(=O)NC | 31.6% |  |  |
| CCC(C)(C)C(=O)C(=O)N1CCCC[C@H]1C(=O)NCCCCc1cccnc1 | 29.4% |  |  |
| CCC(C)(C)C(=O)C(=O)N1CCC[C@H]1C(=O)SCCCc1ccc(C(F)(F)F)cc1 |  | 71% | Recovery (Mus musculus [3]): 34% |
| CCC(C)(C)C(=O)C(=O)N1CCCC[C@H]1C(=O)NCCCc1ccccc1 | 65.3% |  |  |
| O=C(C(=O)N1CCC[C@H]1C(=O)SCCCc1ccccc1)C1CCCCC1 |  | 52% |  |
| CCC(C)(C)C(=O)C(=O)N1CCC[C@H]1C(=O)NCCCc1cccnc1 | 4.7% |  | Ki [2]: 820 nM |
| CCC(C)(C)C(=O)C(=O)N1CCC[C@H]1C(=O)SCCC(c1ccccc1)c1ccccc1 |  | 39% | Recovery (Mus musculus [3]): 37% |
| CCC(C)(C)C(=O)C(=O)N1CCCC[C@H]1C(=O)NCCC(c1ccccc1)c1ccccc1 | 41.9% |  | Ki [2]: 420 nM |
| O=C(C(=O)N1CCCC[C@H]1C(=O)NCCCCc1ccccc1)c1ccccc1 | 18.7% |  |  |

| Structure (SMILES) | Recovery (Mus musculus [1]) | Recovery (Mus musculus [4]) | further results |
| --- | --- | --- | --- |
| CCC(C)(C)C(=O)C(=O)N1CCC[C@H]1C(=O)NCCCCc1ccccc1 | 50.1% |  |  |
| CCC(C)(C)C(=O)C(=O)N1CCC[C@H]1C(=O)OCCCc1cccnc1 [GPI-1046] |  | 43% | Recovery (Mus musculus [6]): 35%; EC50 (Gallus gallus): 0.06 nM |
| CCC(C)(C)C(=O)C(=O)N1CCC[C@H]1C(=O)NCCc1ccccc1 | 44.1% |  |  |
| CCC(C)(C)C(=O)C(=O)N1CCC[C@H]1C(=O)SCCCc1ccc(OC)cc1 |  |  | EC50 (Gallus gallus): 0.01 nM |
| CCC(C)(C)C(=O)C(=O)N1CCC[C@H]1C(=O)SCCCc1ccccc1 |  | 72% | EC50 (Gallus gallus): < 0.01 nM |
| CCC(C)(C)C(=O)C(=O)N1CCC[C@H]1C(=O)N(C)CCCc1ccccc1 | 20.5% |  |  |
| CCC(C)(C)C(=O)C(=O)N1CCC[C@H]1C(=O)NC(CCc1ccccc1)CCc1ccccc1 | 6.9% |  |  |
| O=C(C(=O)N1CCC[C@H]1C(=O)SCCc1ccccc1)C1CCCC1 |  | 41% |  |
| CCC(C)(C)C(=O)C(=O)N1CCC[C@H]1C(=O)SCCCc1ccc2ccccc2c1 |  | 36% | Recovery (Mus musculus [3]): 10% |
| CCC(C)(C)C(=O)C(=O)N1CCC[C@H]1C(=O)NC | 16.1% |  |  |
| CCC(C)(C)C(=O)C(=O)N1CCCC[C@H]1C(=O)NCCCCc1ccc(O)cc1 | 60.4% |  |  |
| CCC(C)(C)C(=O)C(=O)N1CCCC[C@H]1C(=O)SCCc1ccccc1 |  | 73% |  |
| CCC(C)(C)C(=O)C(=O)N1CCC[C@H]1C(=O)SCCCc1cccnc1 |  | 31% |  |
| CC(C)(C)C(=O)C(=O)N1CCC[C@H]1C(=O)NCCCc1ccccc1 | 28.1% |  |  |
| CCC(C)(C)C(=O)C(=O)N1CCC[C@H]1C(=O)SCCc1ccccc1 | 31.4% | 66% | EC50 (Gallus gallus): 0.77 nM |
| CCC(C)(C)C(=O)C(=O)N1CCCC[C@H]1C(=O)NCCCCCc1ccccc1 | 37.4% |  |  |
